According to patent US5106951A, “Antibody conjugates” (NeoRx Corporation, priority 1989, dated 1992):
pKd: −log10 of the molar value.

Columns and labels:
Test in all cases: Binding of doxorubicin by synthetic oligopeptide, absorbance titration
[1] = system: synthetic oligopeptide, Peptide 11, EC(MIANS)GC(MIANS)EGGC(Acm)
Text: (§1) Experiments have been conducted to assess the use of synthetic oligopeptides to bind the drug doxorubicin. Binding was followed by changes in the visible spectrum of doxorubicin, and analyzed by titrating the drug absorption spectrum at 475 nm or 565 nm with varying concentrations of peptide, in pH 7.0 0.1M phosphate buffer. Binding curves were fit to a single hyperbola with the program Enzfitter (Elsevier-Biosoft). These peptides were designed to test the effectiveness in intercalating doxorubicin of a 1,3-spacing between amino acids containing aromatic groups in their side chains (i.e., a single non-aromatic amino acid intervenes between the two residues having aromatic side chains). The amino acids are C, cys; K, lys; W, trp; G, gly; E, glu; D, asp; Fmoc, 9-fluorenylmethoxycarbonyl, attached to the lysine epsilon-amino group; and MIANS, 2-(4'-maleimidylanilino)naphthalene-6-sulfonic acid attached to cysteine.
This oligopeptide was prepared by first synthesizing the oligopeptide ECGCEGGC(Acm), wherein "Acm" represents an acetamidomethyl protecting group. The synthesis was conducted using the solid phase methodology of Barany and Merrifield, supra, and Houghten, R. A., Proc Nat. Acad. Sci. USA 82:5131, 1985. The number of cysteine thiols per peptide was 1.8 as measured by titration with Ellman's reagent. […]
The peptide concentration was determined with ninhydrin. […]

[2] = target: synthetic oligopeptide, Peptide 5, EK(Fmoc)GGK(Fmoc)EGGC; conditions: pH 7.0 0.1M phosphate buffer, 1,4 spacing of aromatic side chains
Text: as §1, with “These peptides were designed to test the effectiveness in intercalating doxorubicin of a 1,3-spacing between amino acids containing aromatic groups in their side chains (i.e., a single non-aromatic amino acid intervenes between the two residues having aromatic side chains).” left out

[3] = target: synthetic oligopeptide, Peptide 6, EK(Fmoc)K(Fmoc)EGGC; conditions: pH 7.0 0.1M phosphate buffer, 1,2 spacing of aromatic side chains
Text: as §1, with “These peptides were designed to test the effectiveness in intercalating doxorubicin of a 1,3-spacing between amino acids containing aromatic groups in their side chains (i.e., a single non-aromatic amino acid intervenes between the two residues having aromatic side chains).” left out

[4] = target: synthetic oligopeptide, Peptide 7, EK(Fmoc)GK(Fmoc)EGGC; conditions: pH 7.0 0.1M phosphate buffer; 1,3 spacing of aromatic side chains
Text: as §1

[5] = target: synthetic oligopeptide, Peptide 4, KK(Fmoc)GK(Fmoc)KGGC; conditions: pH 7.0 0.1M phosphate buffer, doxorubicin absorption at 475 nm or 565 nm titrated with peptide
Text: as §1

[6] = target: synthetic oligopeptide, Peptide 10, EEK(Fmoc)GK(Fmoc)EEGGC; conditions: pH 7.0 0.1M phosphate buffer; doxorubicin absorption at 475 nm or 565 nm titrated with peptide
Text: as §1

[7] = target: synthetic oligopeptide, Peptide 3, […]-amide; conditions: pH 7.0 0.1M phosphate buffer, doxorubicin absorption at 475 nm or 565 nm titrated with peptide
Text: as §1

[8] = target: synthetic oligopeptide, Peptide 9, EK(Fmoc)EK(Fmoc)EGGC; conditions: pH 7.0 0.1M phosphate buffer, doxorubicin absorption at 475 nm or 565 nm titrated with peptide
Text: as §1

[9] = target: synthetic oligopeptide, Peptide 2, CKWGWGWK-amide; conditions: pH 7.0 0.1M phosphate buffer, doxorubicin absorption at 475 nm or 565 nm titrated with peptide
Text: as §1

[10] = target: synthetic oligopeptide, Peptide 1, CKWGWK-amide; conditions: pH 7.0 0.1M phosphate buffer, doxorubicin absorption at 475 nm or 565 nm titrated with peptide
Text: as §1

[11] = target: synthetic oligopeptide, Peptide 8, DK(Fmoc)GK(Fmoc)DGGC (DK(Fmoc)GK(Fmoc)DGGC-amide); conditions: 50 μM doxorubicin in 0.1M phosphate buffer at pH 7.0, 475 nm, fit to single hyperbola; read-out: Kd (apparent dissociation constant)
Text: as §1
No absorbance change was observed when the oligopeptide was added to buffer in the absence of doxorubicin. […] Oligopeptide carrier alone was added to the reference cuvette. The binding constant is derived from the nonlinear least squares best fit to a single hyperbola using the program Enzfitter (Elsevier-Biosoft), yielding an apparent dissociation constant of 22 μM.

COc1cccc2c1C(=O)c1c(O)c3c(c(O)c1C2=O)C[C@@](O)(C(=O)CO)C[C@@H]3O[C@H]1C[C@H](N)[C@H](O)[C@H](C)O1 [Doxorubicin, doxorubicin]
improvement of binding of doxorubicin by MIANS side chain versus FMOC ([1]; MIANS peptide compared with FMOC peptide, 1,3 spacing): about 6 fold | pKd ([1]; pH 7.0 0.1M phosphate buffer, at 565 or 580 nm, read-out: Kd (best-fit apparent dissociation constant)): 4.32 | Kd [2]: same | Kd ([2]; listed as doxorubicin): the same result is obtained | Kd [3]: same | Kd ([3]; listed as doxorubicin): undetectable binding | pKd [4]: 3.55 | Kd [5]: same | Kd ([5]; listed as doxorubicin): no detectable binding | pKd [6]: 4.48 | Kd [7]: same | Kd ([7]; listed as doxorubicin): no detectable binding | Kd [8]: no detectable | Kd ([8]; listed as doxorubicin): binding is not observed | Kd [9]: same | Kd ([9]; listed as doxorubicin): no detectable binding | Kd [10]: no detectable | Kd ([10]; listed as doxorubicin): no detectable binding | pKd [11]: 4.66
